Key:
Assay in all cases: relative viability (nuclei count vs DMSO), 5 days (fraction); higher = more cells survive
[1] = compound: C(C(=O)C(=O)O)Br [Bromopyruvate] + CC(C)C[C@H](NC(=O)[C@H](Cc1ccccc1)NC(=O)c1cnccn1)B(O)O [Bortezomib] (partner 0.002 µM)
In short: (§1)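 Each reported value is a median over duplicate plates. It expresses relative viability: treated-well nuclei count divided by vehicle-well nuclei count. Lung cancer cell lines in 1536-well plates were dosed by pin tool a day after seeding, alone with one drug or with a fixed anchor-drug dose plus five library-drug doses (not always all listed) in √10 steps, and nuclei were counted after 5 days.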

[2] = compound: C(C(=O)C(=O)O)Br [Bromopyruvate] + Nc1nc2[nH]cc(CCc3ccc(C(=O)N[C@@H](CCC(=O)O)C(=O)O)cc3)c2c(=O)[nH]1 [Pemetrexed] (partner 0.2 µM)
In short: as §1

[3] = compound: CC(O)(CS(=O)(=O)c1ccc(F)cc1)C(=O)Nc1ccc(C#N)c(C(F)(F)F)c1 [Bicalutamide] + N=C(N)NC(=N)NCCc1ccccc1 [Phenformin] (partner 250 µM)
In short: as §1

[4] = compound: C(C(=O)C(=O)O)Br [Bromopyruvate] + CC1(C)CCC(c2ccc(Cl)cc2)=C(CN2CCN(c3ccc(C(=O)NS(=O)(=O)c4ccc(N[C@H](CCN5CCOCC5)CSc5ccccc5)c(S(=O)(=O)C(F)(F)F)c4)cc3)CC2)C1 [Navitoclax] (partner 0.5 µM)
In short: as §1

Cell Line	relative viability ([1]; first compound 1 µM)	relative viability ([1]; first compound 3.162 µM)	relative viability ([1]; first compound 10 µM)	relative viability ([1]; first compound 31.62 µM)	relative viability ([1]; first compound 100 µM)	relative viability ([2]; first compound 1 µM)	relative viability ([2]; first compound 3.162 µM)	relative viability ([2]; first compound 10 µM)	relative viability ([2]; first compound 31.62 µM)	relative viability ([2]; first compound 100 µM)	relative viability ([3]; first compound 0.08 µM)	relative viability ([3]; first compound 0.253 µM)	relative viability ([3]; first compound 0.8 µM)	relative viability ([3]; first compound 2.53 µM)	relative viability ([4]; first compound 1 µM)	relative viability ([4]; first compound 3.162 µM)	relative viability ([4]; first compound 10 µM)	relative viability ([4]; first compound 31.62 µM)	relative viability ([4]; first compound 100 µM)
LOU-NH91	0.499	0.499	0.518	0.49	0.472	0.402	0.371	0.366	0.402	0.443	0.745	0.493	0.814	0.821	0.835	0.611	0.759	0.84	0.783
LU99A	1.18	1.11	1.05	1.05	1.26	0.178	0.21	0.169	0.202	0.165	0.917	0.715	0.997	0.663	0.767	0.696	0.834	0.558	0.411
LXF-289	1.04	0.966	0.975	1.03	1	0.874	0.92	0.899	0.958	0.941	0.596	0.481	0.55	0.519	0.983	0.987	0.898	0.99	1.02
NCI-H23	1.03	0.991	1.25	0.941	0.839	0.71	0.76	0.808	0.619	0.812	0.851	0.694	0.883	0.765	0.855	0.807	0.983	0.768	0.77
NCI-H322M	1.2	1.25	1.12	1.18	1.26	0.614	0.663	0.592	0.585	0.637	0.821	0.789	0.904	0.859	1.23	1.2	1.22	1.16	1.3
NCI-H441	0.37	0.549	0.481	0.548	0.459	0.255	0.282	0.299	0.274	0.271	0.849	0.745	1.09	0.683	0.539	0.441	0.557	0.439	0.493
NCI-H460	1.06	1.14	1.34	0.978	1.07	0.0598	0.078	0.0595	0.0647	0.0655	0.559	0.524	0.834	0.52	1.11	1.17	1.58	1.1	1.16
NCI-H520	0.6	0.595	0.532	0.49	0.541	0.64	0.713	0.691	0.598	0.629	0.707	0.421	0.61	0.366	1.05	1.08	1.21	1.18	1.03
NCI-H596	–	1.14	1.01	0.915	1.03	0.546	0.522	0.55	0.48	0.59	0.586	0.643	0.794	0.897	0.871	0.964	1.1	0.877	1.07
NCI-H647	0.93	1.01	1	1.18	0.961	0.17	0.162	0.156	0.184	0.177	0.646	0.596	0.758	0.385	1.17	1.3	1.49	1.18	1.19
NCI-H838	0.915	0.886	0.773	0.786	0.763	0.244	0.274	0.242	0.232	0.245	0.588	0.573	0.748	0.337	1.11	1.16	1.3	1.17	1.28
NCI-H1355	1.35	1.16	1.25	1.34	1.16	1.08	1.12	1.14	1.08	1.08	0.456	0.44	0.481	0.492	0.936	0.982	1	0.901	0.91
NCI-H1437	0.546	0.458	0.485	0.405	0.626	0.307	0.315	0.339	0.329	0.337	0.341	0.264	0.422	0.309	1.11	1.09	1.11	1.09	1.17
NCI-H1650	0.196	0.194	0.209	0.255	0.19	0.39	0.435	0.37	0.406	0.266	0.429	0.375	0.493	0.378	1.09	1.31	1.42	1.47	1.19
NCI-H1651	0.922	0.952	1.04	0.822	0.867	0.551	0.583	0.582	0.527	0.579	0.36	0.377	0.411	0.345	1.04	0.97	1.07	0.96	1.2
NCI-H1666	0.804	0.847	0.638	0.89	0.819	0.834	0.896	1.02	0.859	0.855	0.613	0.541	0.569	0.537	0.957	1.12	1.03	1.01	0.754
NCI-H1734	0.984	0.89	1.11	0.97	1.09	0.391	0.398	0.395	0.466	0.408	0.41	0.338	0.458	0.416	0.76	0.799	0.975	0.809	0.886

From the supplement of paper PMC10307832
